Bounds are passed on as bounds.

Assay type in all cases: cell-based
The test system of test [1] is 4th stage larvae (L4) of Dirofilaria immitis. Description: Dirofilaria immitis, L4 Stage (DiL4) In Vitro Assay. The conditions noted are these: Dirofilaria immitis, 72 h, read-out: DiL4 Minimum Effective Dose (MED), approximately 72 hours incubation; L4 larvae assessed for survival or paralysis.
For test [2], the system named is third stage larvae of Haemonchus contortus. Put plainly: Haemonchus contortus L3 (HcL3) Assay. The conditions noted are these: 96 h, read-out: HcL3 Minimum Effective Dose (MED).
In test [3] the test system is microfilariae of Dirofilaria immitis. Description: Dirofilaria immitis, Microfilaria (DiMF) In vitro Assay. The conditions noted are these: 72 h, read-out: DiMF Minimum Effective Dose (MED), approximately 72 hours incubation, microfilariae assessed for survival or paralysis.

For the molecule `CCOc1cnn(Cc2ccc(C[C@H]3OC(=O)[C@H](CC(C)C)N(C)C(=O)[C@@H](C)OC(=O)[C@H](CC(C)C)N(C)C(=O)[C@@H](Cc4ccc(Cn5ncc(OCC)c5C)cc4)OC(=O)[C@H](CC(C)C)N(C)C(=O)[C@@H](C)OC(=O)[C@H](CC(C)C)N(C)C3=O)cc2)c1C` [Example 1b-197, (3S,6R,9S,12R,15S,18R,21S,24R)-6,18-bis[[4-[(4-ethoxy-5-methyl-pyrazol-1-yl)methyl]phenyl]methyl]-3,9,15,21-tetraisobutyl-4,10,12,16,22,24-hexamethyl-1,7,13,19-tetraoxa-4,10,16,22-tetrazacyclotetracosane-2,5,8,11,14,17,20,23-octaone], the minimal effective concentration was 0.001 to 0.01 µM in test [1], 1 to 10 µM in test [2] and 0.001 to 0.01 µM in test [3].

Turning to `CC(C)C[C@H]1C(=O)O[C@H](Cc2ccc(Cn3cc(Br)cn3)cc2)C(=O)N(C)[C@@H](CC(C)C)C(=O)O[C@H](C)C(=O)N(C)[C@@H](CC(C)C)C(=O)O[C@H](Cc2ccccc2)C(=O)N(C)[C@@H](CC(C)C)C(=O)O[C@H](C)C(=O)N1C` [Example 2-22, (3S,6R,9S,12R,15S,18R,21S,24R)-6-benzyl-18-(4-((4-bromo-1H-pyrazol-1-yl)methyl)benzyl)-3,9,15,21-tetraisobutyl-4,10,12,16,22,24-hexamethyl-1,7,13,19-tetraoxa-4,10,16,22-tetraazacyclotetracosan-2,5,8,11,14,17,20,23-octaone], the minimal effective concentration was 0.0001 to 0.001 µM in test [1], 1 to 10 µM in test [2] and 0.001 to 0.01 µM in test [3].

Consider `CC(C)C[C@H]1C(=O)O[C@H](Cc2ccc(Cn3cc(Br)cn3)cc2)C(=O)N(C)[C@@H](CC(C)C)C(=O)O[C@H](C)C(=O)N(C)[C@@H](CC(C)C)C(=O)O[C@H](Cc2ccc(Cn3cccn3)cc2)C(=O)N(C)[C@@H](CC(C)C)C(=O)O[C@H](C)C(=O)N1C` [Example 1a-16, (3S,6R,9S,12R,15S,18R,21S,24R)-6-(4-((1H-pyrazol-1-yl)methyl)benzyl)-18-(4-((4-bromo-1H-pyrazol-1-yl)methyl)benzyl)-3,9,15,21-tetraisobutyl-4,10,12,16,22,24-hexamethyl-1,7,13,19-tetraoxa-4,10,16,22-tetraazacyclotetracosan-2,5,8,11,14,17,20,23-octaone], for which the minimal effective concentration lay within 0.0001 to 0.001 µM in test [1], 1 to 10 µM in test [2] and 0.001 to 0.01 µM in test [3].

As to `CC(C)C[C@H]1C(=O)O[C@H](Cc2ccc(Cn3cc(Cl)cn3)cc2)C(=O)N(C)[C@@H](CC(C)C)C(=O)O[C@H](C)C(=O)N(C)[C@@H](CC(C)C)C(=O)O[C@H](Cc2ccc(Cn3cc(Cl)cn3)cc2)C(=O)N(C)[C@@H](CC(C)C)C(=O)O[C@H](C)C(=O)N1C` [Example 1b-35, (3S,6R,9S,12R,15S,18R,21S,24R)-6,18-bis(4-((4-chloro-1H-pyrazol-1-yl)methyl)benzyl)-3,9,15,21-tetraisobutyl-4,10,12,16,22,24-hexamethyl-1,7,13,19-tetraoxa-4,10,16,22-tetraazacyclotetracosan-2,5,8,11,14,17,20,23-octaone], the figures for the minimal effective concentration in test [1], in test [2] and in test [3] were 0.0001 to 0.001 µM, 10 to 100 µM and 0.001 to 0.01 µM, respectively.

As for `CC(C)C[C@H]1C(=O)O[C@H](Cc2ccc(C3(n4cc(Cl)cn4)CCC3)cc2)C(=O)N(C)[C@@H](CC(C)C)C(=O)O[C@H](C)C(=O)N(C)[C@@H](CC(C)C)C(=O)O[C@H](Cc2ccc(C3(n4cc(Cl)cn4)CCC3)cc2)C(=O)N(C)[C@@H](CC(C)C)C(=O)O[C@H](C)C(=O)N1C` [Example 1c-2, (3S,6R,9S,12R,15S,18R,21S,24R)-6,18-bis(4-(1-(4-chloro-1H-pyrazol-1-yl)cyclobutyl)benzyl)-3,9,15,21-tetraisobutyl-4,10,12,16,22,24-hexamethyl-1,7,13,19-tetraoxa-4,10,16,22-tetraazacyclotetracosan-2,5,8,11,14,17,20,23-octaone], the minimal effective concentration in test [1] was not above 0.0001 µM; in test [2] it was not above 1 µM; in test [3] it was 0.001 to 0.01 µM.

For the molecule `COCOc1cnn(Cc2ccc(C[C@H]3OC(=O)[C@H](CC(C)C)N(C)C(=O)[C@@H](C)OC(=O)[C@H](CC(C)C)N(C)C(=O)[C@@H](Cc4ccc(Cn5cc(OCOC)cn5)cc4)OC(=O)[C@H](CC(C)C)N(C)C(=O)[C@@H](C)OC(=O)[C@H](CC(C)C)N(C)C3=O)cc2)c1` [Example 1b-201, (3S,6R,9S,12R,15S,18R,21S,24R)-3,9,15,21-tetraisobutyl-6,18-bis[[4-[[4-(methoxymethoxy)pyrazol-1-yl]methyl]phenyl]methyl]-4, 10,12,16,22,24-hexamethyl-1,7,13,19-tetraoxa-4,10,16,22-tetrazacyclotetracosane-2,5,8,11,14,17,20,23-octaone], the results for the minimal effective concentration in test [1], in test [2] and in test [3] were 0.001 to 0.01 µM, 1 to 10 µM and 0.001 to 0.01 µM, respectively.

With `CC(C)C[C@H]1C(=O)O[C@H](Cc2ccc(Cn3ncnc3CC3CC3)cc2)C(=O)N(C)[C@@H](CC(C)C)C(=O)O[C@H](C)C(=O)N(C)[C@@H](CC(C)C)C(=O)O[C@H](Cc2ccc(Cn3ncnc3CC3CC3)cc2)C(=O)N(C)[C@@H](CC(C)C)C(=O)O[C@H](C)C(=O)N1C` [Example 9-55, (3S,6R,9S,12R,15S,18R,21S,24R)-6,18-bis(4-((5-(cyclopropylmethyl)-1H-1,2,4-triazol-1-yl)methyl)benzyl)-3,9,15,21-tetraisobutyl-4,10,12,16,22,24-hexamethyl-1,7,13,19-tetraoxa-4,10,16,22-tetraazacyclotetracosan-2,5,8,11,14,17,20,23-octaone], the minimal effective concentration was 0.0001 to 0.001 µM in test [1] and not above 1 µM in test [2].

`CC(C)C[C@H]1C(=O)O[C@H](Cc2ccc(Cn3cc(F)cn3)cc2)C(=O)N(C)[C@@H](CC(C)C)C(=O)O[C@H](C)C(=O)N(C)[C@@H](CC(C)C)C(=O)O[C@H](Cc2ccc(Cn3cc(F)cn3)cc2)C(=O)N(C)[C@@H](CC(C)C)C(=O)O[C@H](C)C(=O)N1C` [Example 1b-17, (3S,6R,9S,12R,15S,18R,21S,24R)-6,18-bis(4-((4-fluoro-1H-pyrazol-1-yl)methyl)benzyl)-3,9,15,21-tetraisobutyl-4,10,12,16,22,24-hexamethyl-1,7,13,19-tetraoxa-4,10,16,22-tetraazacyclotetracosan-2,5,8,11,14,17,20,23-octaone]: the minimal effective concentration in test [1] fell in the range of 0.0001 to 0.001 µM; in test [2], 1 to 10 µM.

For `CC(C)C[C@H]1C(=O)O[C@H](Cc2ccc(Cn3nccc3-c3ccccn3)cc2)C(=O)N(C)[C@@H](CC(C)C)C(=O)O[C@H](C)C(=O)N(C)[C@@H](CC(C)C)C(=O)O[C@H](Cc2ccc(Cn3nccc3-c3ccccn3)cc2)C(=O)N(C)[C@@H](CC(C)C)C(=O)O[C@H](C)C(=O)N1C` [Example 1b-173, (3S,6R,9S,12R,15S,18R,21S,24R)-3,9,15,21-tetraisobutyl-4,6,10,16,18,22-hexamethyl-12,24-bis(4-((5-(pyridin-2-yl)-1H-pyrazol-1-yl)methyl)benzyl)-1,7,13,19-tetraoxa-4,10,16,22-tetraazacyclotetracosan-2,5,8,11,14,17,20,23-octaone], the minimal effective concentration in test [1] is 0.0001 to 0.001 µM; in test [2] it was not above 1 µM.

Consider `CC(C)C[C@H]1C(=O)O[C@H](Cc2ccc(Cn3cccc3C#N)cc2)C(=O)N(C)[C@@H](CC(C)C)C(=O)O[C@H](C)C(=O)N(C)[C@@H](CC(C)C)C(=O)O[C@H](Cc2ccccc2)C(=O)N(C)[C@@H](CC(C)C)C(=O)O[C@H](C)C(=O)N1C` [Example 10-13, 1-[[4-[[(2R,5S,8R,11S,14R,17S,20R,23S)-14-benzyl-5,11,17,23-tetraisobutyl-4,8,10,16,20,22-hexamethyl-3,6,9,12,15,18,21,24-octaoxo-1,7,13,19-tetraoxa-4,10,16,22-tetrazacyclotetracos-2-yl]methyl]phenyl]methyl]pyrrole-2-carbonitrile], for which the minimal effective concentration in test [1] lay within 0.0001 to 0.001 µM; in test [2], 1 to 10 µM.

Take `CCOc1ccn(Cc2ccc(C[C@H]3OC(=O)[C@H](CC(C)C)N(C)C(=O)[C@@H](C)OC(=O)[C@H](CC(C)C)N(C)C(=O)[C@@H](Cc4ccc(Cn5ccc(OCC)n5)cc4)OC(=O)[C@H](CC(C)C)N(C)C(=O)[C@@H](C)OC(=O)[C@H](CC(C)C)N(C)C3=O)cc2)n1` [Example 1b-104, (3S,6R,9S,12R,15S,18R,21S,24R)-6,18-bis(4-((3-ethoxy-1H-pyrazol-1-yl)methyl)benzyl)-3,9,15,21-tetraisobutyl-4,10,12,16,22,24-hexamethyl-1,7,13,19-tetraoxa-4,10,16,22-tetraazacyclotetracosan-2,5,8,11,14,17,20,23-octaone]: the minimal effective concentration in test [1] was 0.0001 to 0.001 µM; in test [2] it was not above 1 µM.

Regarding `CC(C)C[C@H]1C(=O)O[C@H](Cc2ccc(Cn3ncnc3C3CCC3)cc2)C(=O)N(C)[C@@H](CC(C)C)C(=O)O[C@H](C)C(=O)N(C)[C@@H](CC(C)C)C(=O)O[C@H](Cc2ccc(Cn3ncnc3C3CCC3)cc2)C(=O)N(C)[C@@H](CC(C)C)C(=O)O[C@H](C)C(=O)N1C` [Example 9-54, (3S,6R,9S,12R,15S,18R,21S,24R)-6,18-bis(4-((5-cyclobutyl-1H-1,2,4-triazol-1-yl)methyl)benzyl)-3,9,15,21-tetraisobutyl-4,10,12,16,22,24-hexamethyl-1,7,13,19-tetraoxa-4,10,16,22-tetraazacyclotetracosan-2,5,8,11,14,17,20,23-octaone], the minimal effective concentration in test [1] was 0.001 to 0.01 µM; in test [2], 1 to 10 µM.

These data come from patent publication US11331369B2, “Endoparasitic depsipeptides” (Zoetis Services LLC, priority 2017, dated 2022).
